From US5618675A, “Methods and compositions for detecting lipopolysaccharides using CAP18 fragments” (Panorama Research, Inc., dated 1997)

What was measured:
[1] = system: E. coli 09:K39 K^+ strain; test: Antibacterial CFU assay; settings: FIG. 6H
[2] = system: ddY mice; test: Tissue factor lethality model; assay type: in vivo; settings: for Survival (%) / No. of Mice (dead/total) / Survival time: Tissue factor 1.0 mg/mouse IV; for Survival (%): control 0; for No. of Mice (dead/total): control 7/7; for Survival time: control 187 ± 70
Protocol: Reference tissue factor (Simplastin, 1 mg/mouse) was IV injected into ddY mice (male, 20-week-old, 38-45 g) incubated with or without peptide.
The anticoagulant activity of the RNIP peptides was studied in an acute animal model. Direct injection of tissue factor IV (Simplastin, 1 mg/mouse) produces acute intravascular coagulation and death within three minutes.
^a Tissue factor (Simplastin, 10 mg/ml was mixed with equal volume of
synthetic peptide 100 μg/ml or 50 μg/ml and 0.2 ml of the mixture
injected IV. ddY mice (20 weeks, 38-45 gm).

[3] = system: thioglycolate elected murine peritoneal exudate cells; test: RNI generation by thioglycolate-elicited peritoneal exudate cells; assay type: cell-based; settings: for RNI (reactive nitrogen intermediate): RNIP 50 nm
Protocol: From the sequence of the CAP18 cDNA, it was apparent that the putative N-terminal peptide of CAP18 was in fact an internal fragment of the CAP18 protein. We therefore tried to reconfirm the original protein sequence. Neutrophil-derived heparin bound cationic proteins were prepared as described above and applied to a C18 reverse phase HPLC (FIG. 1). We sequenced the major peaks. Peaks at fractions 14.5 and 15.2 correspond to defensins MCP1 and MCP2 (Territo et al. (1989) J. Clin. Invest. 84:2017-2019), respectively. Fraction 25.8 is macrophage related protein 14 (MRP14) (Odink et al. (1987) Nature 330:80-82). The fraction at 20.3 minutes corresponds to a fragment of CAP18 of approximately 4-5 kD. […] The murine macrophage cell line RAW 264.7 (obtained from ATCC) and thioglycolate-elicited murine peritoneal exudate cells are used to produce RNI. Cells are cultured at 1×10^6 /ml. in RPMI-1640 +2.5% FCS in 24 well plates in the presence or absence of different concentrations of LPS or murine rlFNγ. After 24 hr. incubation at 37° C. the cell free supernatant is collected and tested for the presence of RNI. Accumulation of nitrite in the medium is measured by a colorimetric assay based on the Griess reaction (Green et al. (1982) Anal. Biochem. 126:11) using sodium nitrite as standards. Sample (50 μl) is mixed with 50 μl of Griess reagent (1% sulfanilamide, 0.1% naphthalene diamine dihydrochloride, 2.5% H3 PO4) and after 10 min. at room temperature absorbance is read at 570 nm.

[4] = system: E. coli (HB101); test: Bacterial proliferation, 3H-thymidine incorporation; assay type: cell-based
Protocol: (§1) Bacteria were grown in trypticase broth overnight.
(§2) To corroborate the anti-bacterial activity shown in the CFU assays, inhibition of proliferation of bacteria was tested directly using a ^3 H-thymidine incorporation assay. […] In summary although there is some strain to strain variation in the IC50, all of the Gram-negativestrains tested in two different types of assays were sensitive to these anti-microbial peptides.

[5] = system: Streptococcus pneumoniae; test: as above; assay type: cell-based
Protocol: as §1, §2

[6] = system: human mononuclear cells; test: LPS-induced tissue factor by human mononuclear cells; assay type: cell-based; settings: for Δ Units (%): LPS alone 100, 960 min
Protocol: Human mononuclear cells were separated from citrated peripheral blood by centrifugation over Sodium-metrizoate-Ficoll (lymphocyte Separation Medium, Japan Antibody Institute, Gumma). The resulting mixed mononuclear cell suspension was washed 3 times with RPMI 1640 media. Cell suspension (1×10^6 /ml) was stimulated with LPS for 16 to 18 hr.
Veronal buffered saline (VBS) was added to the cell pellet, lysed by 3 cycles of freeze/thaw and sonicated for 10 sec with a hand-held sonicator microbe (Handy Sonic, model UR-20P, Tomy Seiko LTD, Tokyo). Tissue factor activity was tested in modified unactivated partial thromboplastin time (7). One tenth ml of cell lysate (1×10^6 /ml) was preincubated with mouse plasma at 37° C. for 3 min. Then 0.1 ml of 25 mM-CaCl2 which contains phospholipid was added to the mixture and clotting time was measured using a fibrometer (Bio Quest Division, Becton Dickinson, Cokeysville, USA). A standard curve obtained from serial two-fold dilutions of rabbit brain thromboplastic (Simplastin, Ono Pharmaceutical Co.) was used to transpose tissue factor activity into arbitrary tissue factor units (1 μg/ml) suspension of rabbit brain was assigned a value of 1,000 units).
The mean tissue factor units+standard error was determined from three to four samples. Student's t test for unpair data was used to determine the statistically significant differences. A two-tailed P value of <0.05 was considered significant.
S. minnesota SmoothLPS (2 μg/ml) was preincubated with equal volume of
each LPSbinding protein (28HA) at 37° C. for 45 minutes, and the
mixture was added to the cells and cultured for 16 hours.

[7] = system: RAW 264.7 cells; test: Reversal of LPS-induced inhibition of RAW 264.7 cell proliferation; assay type: cell-based, murine; settings: 5 ng/ml of LPS; FIG. 8
Protocol: When LPS is added to RAW 264.7 cells it causes a dose-dependent inhibition of proliferation with differentiation of the cells into a macrophage phenotype.

[8] = system: E. coli 09:K39 K^- strain; test: Antibacterial CFU assay; settings: FIG. 6H
[9] = RNIP 6 μg/ml (so in the source)
[10] = first experiment, LPS 0.1 μg/ml
[11] = second experiment, LPS 0.1 μg/ml

Substance: RNIP: reactive nitrogen inhibitory protein, amino acids 135-171 of SEQ ID NO:4 (rabbit CAP18 C-terminus); purified from granulocytes or synthetic (#197) (GLRKRLRKFRNKIKEKLKKIGQKIQGLLPKLAPRTDY)
- anti-bacterial IC50 [1]: 0.14 µg/mL
- IC50 ([1]; read-out: anti-bacterial IC50): 20 nM
- Survival (%) ([2]; Peptide #197 5 μg/mouse): 43%
- No. of Mice (dead/total) ([2]; Peptide #197 5 μg/mouse): 4/7
- Survival time ([2]; Peptide #197 5 μg/mouse): 228 ± 48 s
- Survival (%) ([2]; Peptide #197 10 μg/mouse, p < 0.05): 57%
- No. of Mice (dead/total) ([2]; Peptide #197 10 μg/mouse): 3/7
- Survival time ([2]; Peptide #197 10 μg/mouse): 305 s
- reduction of mortality ([2]; tissue factor IV 1 mg/mouse): 57%
- RNI (reactive nitrogen intermediate) ([3]; IFN 500 U/ml, without RNIP 4.0 ± 0.8): 1.1 µM
- RNI (reactive nitrogen intermediate) ([3]; LPS + IFNγ 1 ng + 500 U/ml, without RNIP 26 ± 0.6): 14 ± 0.7 µM
- IC50 ([3]; read-out: IC50 for inhibition of gamma interferon stimulated nitrogen radical release): < 50 nM
- Percent inhibition of proliferation ([4]; RNIP 1.25 μg/ml): 88%
- Percent inhibition of proliferation ([4]; RNIP 2.5 μg/ml): 99%
- Inhibition (%) of proliferation ([4]; RNIP 2.5 μg/ml, FCS 0 %): 94 ± 10.3%
- Inhibition (%) of proliferation ([4]; RNIP 2.5 μg/ml, FCS 1 %): 91 ± 10.9%
- Inhibition (%) of proliferation ([4]; RNIP 2.5 μg/ml, FCS 5 %): 87 ± 3.1%
- Inhibition (%) of proliferation ([4]; RNIP 2.5 μg/ml, FCS 10 %): 78 ± 5.5%
- Percent inhibition of proliferation ([4]; RNIP 5.0 μg/ml): 99%
- Percent inhibition of proliferation [4, 9]: 81%
- Percent inhibition of proliferation ([5]; RNIP 1.25 μg/ml): 47%
- Percent inhibition of proliferation ([5]; RNIP 2.5 μg/ml): 68%
- Percent inhibition of proliferation ([5]; RNIP 5.0 μg/ml): 93%
- Percent inhibition of proliferation [5, 9]: 31%
- Inhibition (%) [6, 10]: 51%
- Tissue Factor, figure in parentheses (relative to unstimulated = 1.0) ([6]; first experiment, LPS 0.1 μg/ml, LPS alone 16.6): 9.0
- Δ Units (%) [6, 10]: 49%
- Δ Units ([6]; first experiment, LPS 0.1 μg/ml, LPS alone 17118): 8342
- Tissue Factor ([6]; first experiment, LPS 0.1 μg/ml, LPS alone 18214 ± 4192, RNIP 2 HA units, CAP-18 1 HA unit): 9438 ± 293 Units × 10^3 /3.6 × 10^4 cells
- Inhibition (%) [6, 11]: 41%
- Tissue Factor, figure in parentheses (relative to unstimulated = 1.0) ([6]; second experiment, LPS 0.1 μg/ml, LPS alone 14.7): 9.0
- Δ Units (%) [6, 11]: 59%
- Δ Units ([6]; second experiment, LPS 0.1 μg/ml, LPS alone 6726): 3950
- Tissue Factor ([6]; second experiment, LPS 0.1 μg/ml, LPS alone 7218 ± 264, HA units HP-1 4, HP-2 2, RNIP 2, CAP-18 1): 4442 ± 982 Units × 10^3 /3.6 × 10^4 cells
- Tissue Factor, figure in parentheses (relative to unstimulated = 1.0) ([6]; second experiment, no LPS): 1.3
- Δ Units ([6]; second experiment, no LPS): 144
- Tissue Factor ([6]; second experiment, no LPS, unstimulated 492 ± 75): 636 ± 141 Units × 10^3 /3.6 × 10^4 cells
- effect on LPS-induced inhibition of proliferation [7]: reverses the inhibition of proliferation
- anti-bacterial IC50 [8]: 0.68 µg/mL
- IC50 ([8]; read-out: anti-bacterial IC50): 110 nM
